The values that follow come from US20110230428A1, “CERTAIN KYNURENINE-3-MONOOXYGENASE INHIBITORS, PHARMACEUTICAL COMPOSITIONS, AND METHODS OF USE THEREOF” (priority 2008, published 2011).

Counter-ions that a name gives are not always drawn.

In this assay the target is T1, KMO mouse enzyme (Mus musculus, UniProt Q91WN4).
T1 construct: KMO enzyme prepared at Evotec from mouse liver (4-6 weeks old) via mitochondria isolation; from tissue; host or cells: mouse liver (4-6 weeks old), isolated mitochondria
T1 sequence (Q91WN4 whole entry): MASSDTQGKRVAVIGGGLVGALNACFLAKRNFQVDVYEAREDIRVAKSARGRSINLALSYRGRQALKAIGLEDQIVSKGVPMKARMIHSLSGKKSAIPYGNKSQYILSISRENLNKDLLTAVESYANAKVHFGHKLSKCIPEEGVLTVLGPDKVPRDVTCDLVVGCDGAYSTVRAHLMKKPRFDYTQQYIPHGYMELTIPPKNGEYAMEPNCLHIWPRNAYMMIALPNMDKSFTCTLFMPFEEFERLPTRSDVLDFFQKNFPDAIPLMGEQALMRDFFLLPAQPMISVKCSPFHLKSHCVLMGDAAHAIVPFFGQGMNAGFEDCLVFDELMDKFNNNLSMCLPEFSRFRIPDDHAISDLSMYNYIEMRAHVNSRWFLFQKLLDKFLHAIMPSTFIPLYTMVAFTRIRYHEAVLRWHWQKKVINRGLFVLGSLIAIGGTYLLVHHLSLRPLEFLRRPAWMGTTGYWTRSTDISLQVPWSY
Description: KMO mouse enzyme assay: L-Kynurenine hydroxylation to 3OH-KYN by LC/MS. In kind it is biochemical. As to conditions: compound at 10 μM; KMO from mouse liver mitochondria; read-out: INH.Mouse @ 10 μM. The method, then: A method of monitoring L-Kynurenine (KYN) hydroxylation to form 3-Hydroxy-Kynurenine (3OH-KYN) by LC/MS is described. Product is quantified by multiple reaction monitoring (MRM method).
• Compound: Stock concentrations: 10 mM in 100% DMSO • Enzyme: KMO enzyme prepared at Evotec from mouse liver (4-6 weeks old) via mitochondria isolation as described in the literature • Substrate: L-Kynurenine (Sigma: Cat# K3750, stock concentration: 10 mM in 100 mM potassium phosphate buffer, pH 7.4)
• Buffer: 100 mM potassium phosphate, pH 7.4, 200 μM NADPH, 0.4 U/ml G6P-DH (Glucose 6-phosphate Dehydrogenase), 3 mM G6P (D-Glucose 6-phosphate) • Assay Volume: 40 μl • Plate Format: 384 well plate, transparent (Matrix) • Read-Out: product (3OH-KYN) quantification using product specific MRM • Reader: LC/MS/MS
• prepare serial dilution (factor 3) of compound in 100% DMSO (top concentration=10 mM, 100% DMSO) • [8 points: 10 mM; 3.33 mM; 1.11 mM; 0.37 mM; 0.12 mM; 0.04 mM; 0.0137 mM; 0.0045 mM, 0.0015 mM] • prepare […] solution of each compound concentration (top concentration 300 μM, 3% DMSO) in assay buffer • [concentrations: 300 μM; 100 μM; 33.3 μM; 11.1 μM; 3.70 μM; 1.23 μM; 0.41 μM; 0.137 μM] • prepare substrate (10 mM) at concentration of 1 mM in assay buffer • assay mix: 4 μl compound/well of each concentration+24 μl assaybuffer/well+8 μl KMO mouse enzyme+4 μl 1 mM substrate (final concentration=100 μM) • [final compound top concentration: 30 μM; 0.3% DMSO] • [final compound bottom concentration: 0.0137 μM; 0.3% DMSO] • positive control: 4 μl 50 μM FCE28833 in assay buffer, 0.5% DMSO [final assay concentration=5 μM]+24 μl assaybuffer/well+8 μl KMO mouse enzyme+4 μl 1 mM substrate [final concentration=100 μM] • negative control: 28 μl assay buffer/well+8 μl KMO mouse enzyme+4 μl 1 mM substrate [final concentration=100 μM] • incubate 40 min at RT • add 40 μl/well 10% trichloro acetic acid in water to stop the assay and precipitate protein • centrifuge plate for 3 min at 4000 rpm • product detection by LC/MS (injection of 20 μl/well, 2 fold overfill of the 10 μl sample loop) Data analysis: IC50's are calculated using automated fitting algorithm (A+Analysis).
Using procedures similar to those described herein, the following compounds were assayed for activity.
Regarding `O=C(O)CC/C(=N\OCc1ccccc1)c1ccc(Cl)c(Cl)c1` [4-Benzyloxyimino-4-(3,4-dichloro-phenyl)-butyric acid], the inhibition at 10 µM was 61.9%.
For the compound `O=C(O)CC/C(=N\OCC1CC1)c1ccc(Cl)c(Cl)c1` [4-Cyclopropylmethoxyimino-4-(3,4-dichloro-phenyl)-butyric acid], the inhibition at 10 µM was 99.6%.
As for `NCCON=C(CCC(=O)O)c1ccc(Cl)c(Cl)c1` [4-[2-Amino-ethoxyimino]-4-(3,4-dichloro-phenyl)-butyric acid trifluoroacetic acid salt], the inhibition at 10 µM turned out to be 49.5%.
In the case of `COC(=O)CCC(=NOCCNC(=O)OC(C)(C)C)c1ccc(Cl)c(Cl)c1` [4-[2-tert-Butoxycarbonylamino-ethoxyimino]-4-(3,4-dichloro-phenyl)-butyric acid methyl ester] it was 56.4%.
As to `CC(C)(C)OC(=O)NCCON=C(CCC(=O)O)c1ccc(Cl)c(Cl)c1` [4-[2-tert-Butoxycarbonylamino-ethoxyimino]-4-(3,4-dichloro-phenyl)-butyric acid], the inhibition at 10 µM amounted to 61.9%.
The value for `CO/N=C(\CCC(=O)NC1CCN(C(=O)OC(C)(C)C)CC1)c1ccc(Cl)c(Cl)c1` [4-[4-(3,4-Dichloro-phenyl)-4-methoxyimino-butyrylamino]-piperidine-1-carboxylic acid tert-butyl ester] was 75.2%.
The value for `CON=C(CCCC#N)c1ccc(Cl)c(Cl)c1` [5-(3,4-Dichloro-phenyl)-5-methoxyimino-pentanenitrile] was 71.5%; that for `CON=C(CCCC(=O)OC)c1ccc(Cl)c(Cl)c1` [5-(3,4-Dichloro-phenyl)-5-methoxyimino-pentanoic acid methyl ester] was 61.2%.
As to `CON=C(CCCC(=O)O)c1ccc(Cl)c(Cl)c1` [5-(3,4-Dichloro-phenyl)-5-methoxyimino-pentanoic acid], the inhibition at 10 µM is 78.3%.
The value for `CON=C(c1ccc(Cl)c(Cl)c1)C1C[C@@H]1C(=O)OC` (stereo partly drawn) [(1S,2S)-trans-2-[(3,4-Dichloro-phenyl)-methoxyimino-methyl]-cyclopropanecarboxylic acid methyl ester] was 61%; that for `CON=C(c1ccc(Cl)c(Cl)c1)[C@H]1C[C@@H]1C(=O)O` [(1S,2S)-trans-2-[(3,4-Dichloro-phenyl)-methoxyimino-methyl]-cyclopropanecarboxylic acid] was 81.2%.
In the case of `CO/N=C(\CCC(=O)NC1CC1)c1ccc(Cl)c(Cl)c1` [N-Cyclopropyl-4-(3,4-dichloro-phenyl)-4-methoxyimino-butyramide] it was 100%.
The value for `CON=C(CCC(=O)NCCN(C)C)c1ccc(Cl)c(Cl)c1` [{2-[4-(3,4-Dichloro-phenyl)-4-methoxyimino-butyrylamino]-ethyl}-dimethyl-ammonium trifluoroacetate] was 68%.
